Experimental data reported in PMC6419424, “Rational protein design of Bacillus sp. MN chitosanase for altered substrate binding and production of specific chitosan oligomers” (Journal of Biological Engineering, 2019).

Biological target: T1, CSN (BspCsnMN) (Bacillus sp. MN, UniProt H9CXV8)
T1 construct: GH8 chitosanase (EC 3.2.1.132), Strep-tag II fusion (pET-22b(+)::StrepII-csn), expressed in E. coli Rosetta 2 (DE3), Strep-Tactin purified
Experiment: UHPLC-ELSD-ESI-MS product quantification, Hill fit
Assay type: biochemical
Details: 40 mM sodium acetate pH 6, 30 °C, 10 min

T1 sequence (H9CXV8 entry or part of it): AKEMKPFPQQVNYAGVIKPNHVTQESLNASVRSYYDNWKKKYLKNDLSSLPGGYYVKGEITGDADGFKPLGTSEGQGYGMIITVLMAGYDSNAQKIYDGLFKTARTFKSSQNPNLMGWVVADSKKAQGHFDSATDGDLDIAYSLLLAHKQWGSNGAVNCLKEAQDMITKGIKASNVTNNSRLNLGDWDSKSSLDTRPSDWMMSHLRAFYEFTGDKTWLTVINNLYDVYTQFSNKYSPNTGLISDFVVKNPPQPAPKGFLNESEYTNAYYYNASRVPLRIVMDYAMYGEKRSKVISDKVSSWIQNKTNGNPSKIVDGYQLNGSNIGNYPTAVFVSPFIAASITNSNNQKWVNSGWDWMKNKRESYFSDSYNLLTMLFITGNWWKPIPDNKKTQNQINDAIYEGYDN

Q: `N[C@H]1[C@H](O[C@H]2[C@H](O)[C@@H](N)[C@H](O[C@H]3[C@H](O)[C@@H](N)[C@H](O[C@H]4[C@H](O)[C@@H](N)[C@H](O[C@H]5[C@H](O)[C@@H](N)C(O)O[C@@H]5CO)O[C@@H]4CO)O[C@@H]3CO)O[C@@H]2CO)O[C@H](CO)[C@@H](O)[C@@H]1O` (stereo partly shown) [D5] was tested. Which “UHPLC-ELSD-ESI-MS product quantification, Hill fit” value did it give?
A: CSN showed high activity on the polymer, and it was even slightly more active on D5
